Test results as given in patent publication US6855714B2, “1-alkyl-2-aryl-benzimidazole derivatives, their use for the production of pharmaceutical agents as well as pharmaceutical preparations that contain these derivatives” (Schering Aktiengesellschaft, priority 2001, dated 2005).

Test system: primary rat microglia
Assay: Inhibition of microglia activation (Aβ peptide stimulation, MTS reduction)
Assay type: cell-based
Conditions: Aβ-activated primary rat microglia, MTS reduction on day 7, compound added on day 5; read-out: IC50 in the Microglia Inhibition Test
Procedure: For in vitro production of Aβ-activated microglia, primary rat microglia are incubated with synthetic Aβ peptide:
To simulate Aβ deposits, synthetic Aβ peptide is dried on 96-hole tissue culture plates. A peptide stock solution of 2 mg/ml of H2O 1:50 in H2O, is diluted in this. To coat the 96-hole plates, 30 μL of this dilute peptide solution/hole is used and dried overnight at room temperature.
Primary rat microglia are harvested from mixed glia cultures, which were obtained from P3 rat brains. For the production of mixed glia cultures, the brains are removed from 3-day-old rats and meninges are removed therefrom. The isolation of cells is achieved by trypsinization (0.25% trypsin solution, 15 minutes 37° C.)). After undigested tissue fragments are separated with the aid of a 40 µm nylon mesh, the isolated cells are centrifuged off (800 rpm/10 minutes). The cell pellet is resuspended in culture medium and moved into 100 ml tissue culture flasks (1 brain/tissue culture flask). […]
To quantify the microglia reactivity, the metabolic activity is measured on cultivation day 7 via the reduction of MTS (3-(4,5-dimethylthiazol-2-yl)-5-(3carboxymethoxyphenyl)-2-(sulfophenyl)-2H-tetrazolium), Owen's reagent, Baltrop, J. A. et al., Bioorg. & Med. Chem. Lett., 1, 6111 (1991)). […]

Compound | IC50 [nM]
COCCCn1c(-c2ccccc2)nc2ccc(OCCCCCC(=O)OC)cc21 [6-[(5-(Methoxycarbonyl)pentyl)oxy]-1-(3-methoxy-n-propyl)-2-phenyl-benzimidazole] | 650
COC(=O)CCCCCOc1ccc2nc(-c3ccc(OC)cc3)n(CCCN(C)C(C)=O)c2c1 [6-[(5-(Methoxycarbonyl)pentyl)oxy]-2-(4-methoxy-phenyl)-1-[3-(N-methyl-N-(methylcarbonyl)amino)propyl]-benzimidazole] | 390
